Reference: US8450522B2, “Conformationally constrained carboxylic acid derivatives useful for treating metabolic disorders” (Amgen Inc., priority 2008, dated 2013)
“Also recorded” adds a separate entry of the source.

Key:
GPR40 [1] = target: T1, GPR40 (Homo sapiens, UniProt O14842); test: Cell-based aequorin assay (CHO cells stably transfected with GPR40 and aequorin); set-up: expressed in transfected cells; details: activation of human GPR40, CHO cells, 0.01% HSA
Protocol: Briefly, the Aequorin assays were performed on doubly stable CHO cells expressing GPR40 and Aequorin DNA. […] The luminescence was recorded over a period of 20 seconds with a Microlumat luminometer (Berthold).
Cell-based aequorin assays were employed to characterize the modulatory activity of compounds on the GPR40 signaling pathway. In an exemplary assay, CHO cells were stably transfected with both GPR40 and Aequorin (Euroscreen). Cells were detached from the tissue culture dish with 2 mL of trypsin (0.25% (w/v)). Trypsinization was halted with 28 mL of Hanks Buffered Salt Solution containing 20 mM Hepes (H/HBSS) and 0.01% fatty acid-free human serum albumin (HSA). Coelantrazine is added to 1 ug/mL, and the cells were incubated for 2 hours at room temperature. Compounds were dissolved in DMSO for preparation of 10 mM stock solutions. Compounds were diluted in H/HBSS containing 0.01% HSA. Serial dilutions of the test compounds were prepared to determine dose response.
Aequorin luminescence measurements were made using an EG&G Berthold 96-well luminometer, and the response was measured over a 20 second interval after cells and compounds were mixed. The maximum relative light units was plotted to determine dose response. The EC50 (effective concentration to reach 50% maximal response) was determined from the dose response plot.

GPR40 [2] = target: T1, GPR40; test: Competition binding assay on A9 membranes expressing GPR40; set-up: expressed in transfected cells; host or cells: membranes of A9 cells expressing GPR40; details: 5 nM [3H] labeled Comparative Compound 1, 4 hours at room temperature
Protocol: Competition binding assays were performed on A9 membranes expressing GPR40.

GPR40 [3] = target: T1, GPR40; test: Inositol phosphate accumulation assay (A9 cell line stably transfected with GPR40); format: cell-based; set-up: expressed in transfected cells; details: human GPR40, A9_GPR40 cells, 1 hour at 37° C.; read-out: IP3 EC50 (inositol phosphate assay data)
Protocol: An A9 cell line stably transfected with GPR40 (A9_GPR40) was used in IP accumulation assays. A9_GPR40 cells were plated in 96-well plates containing 20,000 cells/well in DMEM containing 10% FBS. After the cells attached to the well surface, the media was replaced with inositol free DMEM containing 10% dialyzed FBS and 1 μCi, mL ^3H-inositol and incubated for 16 hours. Compounds were diluted in HBSS/10 mM LiCl containing a desired amount of HSA and added directly to cells. Following 1 hour incubation at 37° C., the media was replaced with 100 μl of 20 mM formic acid to quench the reaction. 50 μL of the extract was then added to 100 μL of SPA beads, incubated overnight, and measured on a TopCount the following day.

T1 sequence (O14842 whole entry): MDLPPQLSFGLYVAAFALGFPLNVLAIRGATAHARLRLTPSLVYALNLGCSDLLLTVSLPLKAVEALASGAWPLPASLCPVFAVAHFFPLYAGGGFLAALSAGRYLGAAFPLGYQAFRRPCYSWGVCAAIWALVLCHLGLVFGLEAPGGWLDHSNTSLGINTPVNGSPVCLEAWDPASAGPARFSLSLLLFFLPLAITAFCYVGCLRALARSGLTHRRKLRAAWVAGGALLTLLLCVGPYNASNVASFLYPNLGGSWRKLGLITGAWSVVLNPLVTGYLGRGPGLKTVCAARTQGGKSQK

Compound | EC50 (GPR40 [1]) | displacement of 3H-labeled Comparative Compound 1 (GPR40 [2]) | effect on binding of the radioligand (3H-labeled Comparative Compound 1) to the receptor (GPR40 [2]) | EC50 (GPR40 [3])
COc1ccc(F)c(-c2ccc(COc3ccc4c(c3)[C@@H](CC(=O)O)CC4)cc2C(C)(C)C)c1 (single isomer, unassigned) [Example 1, ((1R)-6-(((2-(1,1-Dimethylethyl)-2′-fluoro-5′-(methyloxy)-1,1′-biphenyl-4-yl)methyl)oxy)-2,3-dihydro-1H-inden-1-yl)acetic acid or ((1S)-6-(((2-(1,1-Dimethylethyl)-2′-fluoro-5′-(methyloxy)-1,1′-biphenyl-4-yl)methyl)oxy)-2,3-dihydro-1H-inden-1-yl)acetic acid] | 1000 to 10000 nM | did not displace | enhanced the total binding; also recorded: enhanced the binding of the radioligand | 
COc1ccc(F)c(-c2cc(F)c(COc3ccc4c(c3)[C@@](C)(CC(=O)O)CC4)cc2[C@H]2CCCC2(C)C)c1 (single isomer, unassigned) [Example 33, ((1R)-6-((2-((1S)-2,2-Dimethylcyclopentyl)-2′,5-difluoro-5′-methoxy-4-biphenylyl)methoxy)-1-methyl-2,3-dihydro-1H-inden-1-yl)acetic acid or ((1R)-6-((2-((1R)-2,2-dimethylcyclopentyl)-2′,5-difluoro-5′-methoxy-4-biphenylyl)methoxy)-1-methyl-2,3-dihydro-1H-inden-1-yl)acetic acid] | 10 to 100 nM |  |  | < 10 nM
COc1cc(-c2cc(F)c(COc3ccc4c(c3)[C@@](C)(CC(=O)O)CC4)cc2[C@H]2CCCC2(C)C)c(F)cn1 (single isomer, unassigned) [Example 34, ((1R)-6-((5-((1S)-2,2-Dimethylcyclopentyl)-2-fluoro-4-(5-fluoro-2-methoxy-4-pyridinyl)benzyl)oxy)-1-methyl-2,3-dihydro-1H-inden-1-yl)acetic acid or ((1R)-6-((5-((1R)-2,2-dimethylcyclopentyl)-2-fluoro-4-(5-fluoro-2-methoxy-4-pyridinyl)benzyl)oxy)-1-methyl-2,3-dihydro-1H-inden-1-yl)acetic acid] | 100 to 1000 nM |  |  | < 10 nM
CC[C@]1(CC(=O)O)CCc2ccc(OCc3ccc(-c4cc(OC)ccc4F)c([C@@H](OC)C(C)(C)C)c3)cc21 (single isomer, unassigned) [Example 45] | 100 to 1000 nM |  |  | 100 to 1000 nM
COc1cc(-c2ccc(COc3ccc4c(c3)[C@@H](CC(=O)O)CCC4)cc2[C@H]2CCCC2(C)C)c(F)cn1 (single isomer, unassigned) [Example 46] | 100 to 1000 nM |  |  | 10 to 100 nM
COc1cc(-c2ccc(COc3ccc4c(c3)[C@@](C)(CC(=O)O)CCC4)cc2[C@H]2CCCC2(C)C)c(F)cn1 (single isomer, unassigned) [Example 48] | 100 to 1000 nM |  |  | 10 to 100 nM
CC[C@]1(CC(=O)O)CCc2ccc(OCc3ccc(-c4cc(OC)ncc4F)c([C@H]4CCCC4(C)C)c3)cc21 (single isomer, unassigned) [Example 43] | 100 to 1000 nM |  |  | 10 to 100 nM
COc1ccc(F)c(-c2ccc(COc3ccc4c(c3)[C@@H](CC(=O)O)CC4)cc2[C@H]2CCCC2(C)C)c1 (single isomer, unassigned) [Example 22] | 100 to 1000 nM |  |  | 10 to 100 nM
